Results on 12 compounds are retold here after patent US9950983B2, “Tricyclic compounds and process for preparation thereof” (Council of Scientific and Industrial Research, priority 2014, dated 2018).

Molecules are shown by their SMILES. Some results are limits rather than exact numbers.

Experiment [1] has as its system Ae. aegypti females mosquitoes. Put plainly: Mosquito repellence bioassay (protection period, time until the first bite). In kind it is in vivo. To be noted: time until first confirmed bite; for Protection period in hrs @dose 0.25 mg/cm^2: dose 0.25 mg/cm^2 on muslin cloth screen over human volunteer's hand; for Protection period in hrs @dose 0.50 mg/cm^2: dose 0.50 mg/cm^2 on muslin cloth screen over human volunteer's hand. How it is done: Protocol Adopted for the Mosquito Repellence Bioassay
Mosquito repellence activity was assessed on the basis of protection period (hr) offered by various analogues of Nootkatone against Mosquito bites. The protection period was measured on the basis of the concept “time until the first bite” pioneered by Granette (Comparison of mosquito repellency test under laboratory and field conditions. Granett, P. Proc Ann Meet NJ Mosq Assoc, 1938, vol. 25, 51,). Repellence tests were carried out against 3-5 days old, blood starved but sucrose fed (0.5M solution), Ae. aegypti females mosquitoes, drawn from well-established laboratory colony maintained at 27±1° C. Temperatureand 70±5% Relative humidity. The light intensity was regulated at 300-500 lux for testing against laboratory, colonized Ae. aegypti, a day biting mosquito. Human volunteer's hand covered with polythene disposable gloves was introduced in the cage containing about 200 hungry mosquitoes. Mosquitoes were allowed to bite on the back of the hand through muslin screen stuck over a small window (2 cm×2 cm) cutout in the polythene bag. Various analogues of Nootkatone were loaded on the muslin cloth screen instead of direct skin application so as to avoid the potential risk involved in the evaluation of natural products of unknown mammalian toxicity. All the test solutions were made in Analar grade Acetone The muslin cloth screen was first treated with the analogue taking two doses @0.25 mg/cm^2 and 0.5 mg/cm^2 and the solvent was evaporated before use. Control muslin screen was treated with solvent alone. After introduction of the hand covered with the polythene glove with the treated muslin screen into the mosquito cage, number of mosquito bites received in subsequent 5 minutes were counted. In the event of no bites in the initial 5 minutes exposure, the test hand was exposed repeatedly after every consecutive ½ hr for 5 minutes test till the time a confirmed bite was received. Number of hours before the receipt of a confirmed bite (Techniques for the evaluation of insect repellents. A critical review (Schreck, C. E, Ann Rev Entomol, 1977, vol 22, 101) represented the protection period offered by the test compound. In control rate of mosquito bite was 10-12 bites/min. Above test were repeated with both male and female human volunteers using different mosquito batches. All the tests were carried out at 27±1° C. temperature between 9.00-17.00 hrs.

The test system of experiment [2] is Formosan subterranean termite (Coptotermes formosanus). The following applies: Formosan subterranean termites; Zhu et al., J Chem Ecol 2001; cited from earlier work.

As for `C[C@@H]1CC(=O)C=C2C(=O)[C@@H]3[C@@H](C3(C)C)[C@]21C` (racemic) [Recemic nardoaristolone B, (1aS,1bR,2R,6aR)-1,1,1b,2-Tetramethyl-1,1a,1b,2,3,6a-hexahydrocyclopropa[a]indene-4,6-dione], in experiment [1], the “Protection period in hrs @dose 0.25 mg/cm^2” value was 3.30 ± 0.0708 h and the “Protection period in hrs @dose 0.50 mg/cm^2” value is 5.63 ± 0.1778 h. Regarding `C=C(C)[C@@H]1CCC2=CC(=O)C[C@@H](C)[C@]2(C)C1` (racemic) [Recemic nootkatone, nootkatone, reference compound], in experiment [1], the “Protection period in hrs @dose 0.25 mg/cm^2” value was 3.12 ± 0.07 h and the “Protection period in hrs @dose 0.50 mg/cm^2” value amounted to 5.06 ± 0.06 h. On the same counts, the results for `C[C@@H]1CC(=O)C=C2C(=O)[C@H]3[C@H](C3(C)C)[C@]21C` [1a, (1aR,1bR,2R,6aS)-1,1,1b,2-Tetramethyl-1,1a,1b,2,3,6a-hexahydro-cyclopropa[a]indene-4,6-dione] are 4.13 ± 0.0626 h and 5.35 ± 0.0868 h. The corresponding values for `CCOC(=O)[C@H]1[C@@H]2C(=O)C3=CC(=O)C[C@@H](C)[C@]3(C)[C@H]12` [1b, Ethyl(1R,1aS,1bR,2R,6aR)-1b,2-dimethyl-4,6-dioxo-1,1a,1b,2,3,4,6,6a-octahydrocyclopropa[a]indene-1-carboxylate] are 1.23 ± 0.040 h and 1.40 ± 0.0549 h. The corresponding values for `CC1(C)[C@@H]2CC3=CC(=O)CCC3[C@@H]21` (stereo partly drawn) [1c, (1aR,6aR)-1,1-Dimethyl-1a,1b,2,3,6,6a-hexahydrocyclopropa[a]-inden-4(1H)-one] are 3.60 ± 0.0791 h and 5.30 ± 0.088 h. As for `CC1=C2C[C@@H]3[C@H](C2CCC1=O)C3(C)C` (stereo partly drawn) [1d, (1aR,6aR)-1,1,5-trimethyl-1a,1b,2,3,6,6a hexahydrocyclopropa[a]inden-4(1H)-one], in experiment [1], the “Protection period in hrs @dose 0.25 mg/cm^2” value turned out to be 5.64 ± 0.1984 h and the “Protection period in hrs @dose 0.50 mg/cm^2” value came out at 6.29 ± 0.0844 h. Consider `C[C@H]1CC(=O)C=C2C[C@@H]3[C@H]([C@@H]21)C3(C)C` [1e, (1aR,1bS,6aR)-1,1,2-Trimethyl-1a,1b,2,3,6,6a-hexahydrocyclo propa[a]inden-4(1H)-one], for which, in experiment [1], the “Protection period in hrs @dose 0.25 mg/cm^2” value turned out to be 5.22 ± 0.0720 h and the “Protection period in hrs @dose 0.50 mg/cm^2” value came to 6.46 ± 0.1507 h.

As for `CC[C@H]1CC(=O)C=C2C[C@@H]3[C@H]([C@@H]21)C3(C)C` [1f, (1aR,1bS,6aR)-2-Ethyl-1,1-dimethyl-1a,1b,2,3,6,6a hexahydrocyclo propa[a]inden-4(1H)-one], in experiment [1], the “Protection period in hrs @dose 0.25 mg/cm^2” value is 1.53 ± 0.1223 h and the “Protection period in hrs @dose 0.50 mg/cm^2” value was determined as 3.48 ± 0.1396 h. On the same counts, the results for `CCC[C@H]1CC(=O)C=C2C[C@@H]3[C@H]([C@@H]21)C3(C)C` [1g, (1aR,1bS,6aR)-1,1-Dimethyl-2-propyl-1a,1b,2,3,6,6a-hexahydrocyclo propa[a]inden-4(1H)-one] are 1.8 ± 0.1490 h and 1.99 ± 0.1137 h.

Regarding `CC1(C)CC(=O)C=C2C[C@@H]3[C@H]([C@@H]21)C3(C)C` [1h, (1aR,1bR,6aR)-1,1,2,2-Tetramethyl-1a,1b,2,3,6,6a-hexahydro cyclo propa[a]inden-4(1H)-one], in experiment [1], the “Protection period in hrs @dose 0.25 mg/cm^2” value was found to be 2.19 ± 0.0716 h and the “Protection period in hrs @dose 0.50 mg/cm^2” value is 2.38 ± 0.07567 h. As for `C=C(C)[C@@H]1CCC2=CC(=O)C[C@@H](C)[C@]2(C)C1` [Natural nootkatone, nootkatone, reference compound], in experiment [1], the “Protection period in hrs @dose 0.25 mg/cm^2” value turned out to be 5.58 ± 0.171 h and the “Protection period in hrs @dose 0.50 mg/cm^2” value was above 7 h. On to `C=C(C)[C@@H]1CCC2=CC(=O)C[C@@H](C)[C@]2(C)C1` [nootkatone], for which, in experiment [2], the “lowest effective concentration tested” value is on record as 10 micrograms/g substrate.
